Experimental data: paper PMC9513850, “Receptor-binding domain-anchored peptides block binding of severe acute respiratory syndrome coronavirus 2 spike proteins with cell surface angiotensin-converting enzyme 2” (Frontiers in Microbiology, 2022)
Entries after “also recorded” stand apart in the source; their conditions may differ.

Legend:
[1] = test system: recombinant SARS-CoV-2 S-trimer proteins; test: Phage display (PhD-12) panning against S-trimer; type: binding; details: phage-displayed sequence, after panning against S-trimer
[2] = test system: S-trimer-ACE2 binding, recombinant ACE2 proteins; test: Blocking of S-trimer binding onto recombinant ACE2 (ELISA); design: species or system SARS-CoV-2 (S-trimer); details: ACE2 coated 5 μg/ml, S-trimer 0.01 μM premixed with 0.5, 1.65 and 5 μM peptide (up to 500:1)
Experimental: Then, 293T-ACE2hR cells were substituted by recombinant ACE2 proteins and coated onto ELISA plates in the other measurement setting. In brief, recombinant ACE2 proteins (Novoprotein) were immobilized overnight at room temperature on ELISA plates at a 5 μg/ml concentration in 0.1 M NaHCO3, pH 9.6. The plates were then blocked with 10% fetal calf serum for 2 h and washed with tris-buffered saline solution containing 0.1% Tween-20 [[…] (PBST) buffer]. […] The following procedures were described above for the 293T-ACE2hR cells setting.
FIGURE 3 The potential blocking effect of peptides on the binding of S-trimer onto cellular or soluble angiotensin-converting enzyme 2 (ACE2). […] The peptide SBP1 was used as a positive and peptide SBP2 as the negative control. *p < 0.05, vs. vehicle, all by Student’s t-test.

[3] = test system: recombinant SARS-CoV-2 S-RBD; test: Phage display (PhD-12) panning against S-RBD; type: binding; details: phage-displayed sequence, after panning against S-RBD
[4] = test system: S-trimer-ACE2 binding, 293T-ACE2hR cells; type: cell-based, SARS-CoV-2 (S-trimer); human (hACE2); details: for blocking of S-trimer binding onto 293T-ACE2hR cells, lower concentrations: 10 μM peptide and below, S-trimer 0.001 μM; for blocking of S-trimer binding onto 293T-ACE2hR cells, lower concentrations / blocking of S-trimer binding onto 293T-ACE2hR cells: premix 1 h, then 1 h on cells, room temperature, HRP anti-6X His tag, TMB, OD370 nm; for blocking of S-trimer binding onto 293T-ACE2hR cells: 50 μM peptide vs. 0.001 μM S-trimer (50,000-fold), p < 0.05 mark vs. vehicle, Student's t-test; for behaviour of C2 and C6 in the competition assay: Figure 3
S-RBD proteins = test system: S-RBD proteins; design: method as in Zhang et al., 2020; details: bio-layer interferometry; ref Zhang et al., 2020; cited from earlier work
[5] = test system: ACE2 binding onto S-RBD proteins; design: method as in Zhang et al., 2020; details: ref Zhang et al., 2020; cited from earlier work
[6] = test system: cell surface S-RBD proteins; design: method as in Zhang et al., 2020; details: ref Zhang et al., 2020; cited from earlier work

Sequence | enrichment by S-trimer [1] | blocking of S-trimer binding onto recombinant ACE2 [2] | enrichment by S-RBD [3] | blocking of S-trimer binding onto 293T-ACE2hR cells, lower concentrations [4] | blocking of S-trimer binding onto 293T-ACE2hR cells [4] | behaviour of C2 and C6 in the competition assay [4] | association with S-RBD proteins (S-RBD proteins) | competition with ACE2 binding onto S-RBD [5] | association with cell surface S-RBD proteins [6]
DHAQRYGAGHSG [C2] | only C2 was present in S-trimer selected phages | neither for the settings of S-trimer binding onto recombinant ACE2 proteins; also recorded: Failure of 500-fold overdose of C2 or C6 peptides to block S-trimers binding with their receptors | enriched by S-RBD | not at lower concentrations (10 μM and below) | inhibited S-trimer binding onto 293T-ACE2hR cells at high concentrations (50 μM); also recorded: a blocking effect was observed for C2 and C6 | C2 and C6 behaved similarly in the competition assay |  |  | 
HWKAVNWLKPWT [C6] |  | neither for the settings of S-trimer binding onto recombinant ACE2 proteins; also recorded: Failure of 500-fold overdose of C2 or C6 peptides to block S-trimers binding with their receptors | enriched by S-RBD | not at lower concentrations (10 μM and below) | inhibited S-trimer binding onto 293T-ACE2hR cells at high concentrations (50 μM); also recorded: a blocking effect was observed for C2 and C6 | C2 and C6 behaved similarly in the competition assay |  |  | 
IEEQAKTFLDKFNHEAEDLFYQSK [SBP1] |  |  |  |  | still not for SBP1 or SBP2 peptides |  | at the level of micromolar scales | nor did they outcompete ACE2 binding onto S-RBD proteins | neither associated with cell surface S-RBD proteins
TFLDKFNHEAED [SBP2, reference compound] |  |  |  |  | still not for SBP1 or SBP2 peptides |  |  |  | 
